In patent US6492393B1, “Compounds useful as anti-inflammatory agents” (Boehringer Ingelheim Pharmaceuticals, Inc., priority 1999, dated 2002):

System: TNFα in lipopolysaccharide stimulated THP cells
Experiment: Inhibition of TNF Production in THP Cells
Assay type: cell-based
Conditions: LPS (1 μg/mL) stimulated THP.1 cells, 18-24 hr incubation, human TNFα by ELISA
Method: Inhibition of TNF Production in THP Cells
The inhibition of cytokine production can be observed by measuring inhibition of TNFα in lipopolysaccharide stimulated THP cells (for example, see W. Prichett et al., 1995, J. Inflammation, 45, 97). All cells and reagents were diluted in RPMI 1640 with phenol red and L-glutamine, supplemented with additional L-glutamine (total: 4 mM), penicillin and streptomycin (50 units/ml each) and fetal bovine serum (FBS, 3%) (GIBCO, all conc. final). Assay was performed under sterile conditions; only test compound preparation was nonsterile. Initial stock solutions were made in DMSO followed by dilution into RPMI 1640 2-fold higher than the desired final assay concentration. Confluent THP.1 cells (2×10^6 cells/mL, final conc.; […], Rockville, Md.) were added to 96 well polypropylene round bottomed culture plates (Costar 3790; sterile) containing 125 μL test compound (2 fold concentrated) or DMSO vehicle (controls, blanks). […] Cell mixture was allowed to preincubate for 30 min, 37° C., 5% CO2 prior to stimulation with lipopolysaccharide (LPS; 1 μg/mL final; Siga L-2630, from E. coli serotype 0111.B4; stored as 1 mg/mL stock in endotoxin screened distilled H2O at −80° C.). Blanks (unstimulated) received H2O vehicle; final incubation volume was 250 μl. Overnight incubation (18-24 hr) proceeded as described above. Assay was terminated by centrifuging plates 5 min, room temperature, 1600 rpm (400×g); supernatants were transferred to clean 96 well plates and stored −80° C. until analyzed for human TNFα by a commercially available ELISA kit (Biosource #KHC3015, Camarillo, Calif.). Data was analyzed by non-linear regression (Hill equation) to generate a dose response curve using SAS Software System (SAS institute, Inc., Cary, N.C.). The calculated IC50 value is the concentration of the test compound that caused a 50% decrease in the maximal TNFα production.

Row | Structure (SMILES) | IC50 [µM]
1 | Cc1ccc(C(C)(C)C)cc1NC(=O)Nc1ccc(Oc2ccnc(N)c2)c2ccccc12 [1-(5-tert-Butyl-2-methylphenyl)-3-[4-(2-aminopyridin-4-yl-oxy)naphthalen-1-yl]urea] | < 10
2 | Cc1ccc(C(C)(C)C)cc1NC(=O)Nc1ccc(Oc2cccnc2)c2ccccc12 [1-[5-tert-butyl-2-methylphenyl]-3-[4-(3-pyridinyloxy)-naphthalen-1-yl]-urea] | < 10
3 | Cc1ccc(C(C)(C)C)cc1NC(=O)Nc1ccc(Oc2ccncc2)c2ccccc12 [1-[5-tert-butyl-2-methylphenyl]-3-[4-(4-pyridinyloxy)-naphthalen-1-yl]-urea] | < 10

The next lines start with the values.

Row | IC50 [µM] | Structure (SMILES)
4 | < 10 | CC(C)(C)c1ccc(N2CCOCC2)c(NC(=O)Nc2ccc(OCCN3CCOCC3)c3ccccc23)c1 [1-(5-tert-Butyl-2-morpholin-4-yl-phenyl)-3-[4-(2-morpholin-4-yl-ethoxy)-naphthalen-1-yl]-urea]
5 | < 10 | CC(C)(C)c1cc(Br)c(NCCN2CCOCC2)c(NC(=O)Nc2ccc(OCCN3CCOCC3)c3ccccc23)c1 [1-[3-Bromo-5-tert-butyl-2-(2-morpholin-4-yl-ethylamino)-phenyl]-3-[4-(2-morpholin-4-yl-ethoxy)-naphthalen-1-yl]-urea]
6 | < 10 | COc1ccc(C(C)(C)C)cc1NC(=O)Nc1ccc(OCCN2CCOC(COc3ccccc3)C2)c2ccccc12 (stereo not shown) [1-[5-tert-butyl-2-methoxyphenyl]-3-[4-(2-(2-phenoxymethyl)morpholin-4-yl-ethoxy)-naphthalen-1-yl]-urea]
7 | < 10 | Cc1ccc(C(C)(C)C)cc1NC(=O)Nc1ccc(OCCN2CCOCC2)c2ccccc12 [1-[5-tert-butyl-2-methylphenyl]-3-[4-(2-morpholin-4-yl-ethoxy)-naphthalen-1-yl]-urea]
